Assay results from the COVID Moonshot data (paper PMC11187573), “Identification of SARS-CoV-2 Mpro inhibitors through deep reinforcement learning for de novo drug design and computational chemistry approaches” (RSC Medicinal Chemistry, 2024).

Target: SARS-CoV-2 Main Protease (SARS-CoV-2) (UniProt P0DTD1)

Structure (SMILES)	IC50	inhibition (20.0 µM)	inhibition (50.0 µM)
Cc1ccc2nc(Nc3cc(Cl)cc(CC(=O)Nc4cncc5ccccc45)c3)sc2c1	450 nM	–	–
CCn1c(=O)c(-c2cc[nH]n2)cc2c(C)nc(N)nc21	–	-0.487%	4.38%
CC(C)Cn1cc(NC(=O)Nc2cccnc2)c2ccccc2c1=O	–	6.1%	6.63%
Cc1[nH]c2ncnc(NC(=O)c3cccc4c3oc(=O)n4C)c2c1C	–	2.86%	6.1%
CC(C)Cn1cc(NC(=O)NCc2ccco2)c2ccccc2c1=O	–	50.5%	90.3%
CC(C)N(C(=O)Cc1c(O)c2ccccc2[nH]c1=O)C(C)C	–	-0.198%	-0.251%
CC1(C)CN(C(=O)c2ccc(-c3cccc4nc(NC(=O)C5CC5)nn34)cc2)C1	–	-1.13%	0.838%
NC(=O)C[S@@+]([O-])C(c1ccccc1)c1ccccc1 (stereo in doubt)	–	-1.76%	-1.92%
Cn1cc(NC(=O)Nc2cccc(C(F)(F)F)c2)c2ccccc2c1=O	–	-2.91%	0.168%
COc1cc2c(cc1OC)C(C)N(C(=O)Nc1cn(C)c(=O)c3ccccc13)CC2 (stereo not given)	–	51.2%	5.23%
Cc1ccncc1NC(=O)Cc1ccc2[nH]ncc2c1	–	-1.11%	0.248%
COC(=O)c1sccc1NC(=O)Nc1cn(CC(C)C)c(=O)c2ccccc12	–	-3.98%	-0.958%
COc1cc(OC)nc(O[C@H](C(=O)O)C(OC)(c2ccccc2)c2ccccc2)n1 (stereo in doubt)	–	-28.4%	2.42%
CC1Cn2nccc2CN1C(=O)CC1(C(=O)Nc2cncc3ccccc23)CCOc2ccc(Cl)cc21 (stereo not given)	2110 nM	–	–
COc1cc(Br)ccc1Nc1cc(Cl)cc(CC(=O)Nc2cncc3ccccc23)c1	1390 nM	–	–
CC(=O)c1cccc(NC(=O)Nc2cn(C)c(=O)c3ccccc23)c1	–	22.4%	11.9%
Cc1ccn2cnnc2c1NC(=O)C1CCOc2ccccc21 (stereo not given)	–	-11.2%	-4.74%
O=C(NCC1(C(=O)Nc2cncc3ccccc23)CCOc2ccc(Cl)cc21)C1COCCN1CC(F)(F)F (stereo not given)	21600 nM	–	–
CN(Cc1cccc2ccccc12)c1cc(Cl)cc(CC(=O)Nc2cncc3ccccc23)c1	1730 nM	–	–
Cn1cc(NC(=O)NCCc2ccc(Cl)cc2)c2ccccc2c1=O	–	-6.47%	-3.22%
CCOC(=O)N1CCC(NC(=O)Nc2cn(C)c(=O)c3ccccc23)CC1	–	-1.08%	1.92%

Structure (SMILES)	IC50	inhibition (20.0 µM)	inhibition (50.0 µM)
COc1ccc(OC)c(CNC(=O)Nc2cn(CC(C)C)c(=O)c3ccccc23)c1	–	18.5%	0.63%
CC(C)CCC(=O)C[C@H]1c2ccccc2C(=O)N1c1ccc2ccc(Cl)nc2n1 (stereo in doubt)	–	4.26%	-0.676%
Cc1[nH]c2ncnc(NC(=O)C3CCN(c4ccc(Cl)cn4)CC3)c2c1C	–	-8.15%	-5.21%
COc1ccc(OC)c(CNC(=O)Nc2cn(C)c(=O)c3ccccc23)c1	–	25%	3.4%
O=C(Nc1nncn1C1CC1)C1CCOc2c(F)cccc21 (stereo not given)	–	2.37%	3.56%
Nc1n[nH]c2cc(O)nc(O)c12	–	6.14%	30.9%
CC(C)Cn1cc(NC(=O)NCCc2c[nH]c3ccccc23)c2ccccc2c1=O	–	1.66%	6.69%
O=C(OCC(O)CO)c1ccccc1Nc1ccnc2cc(Cl)ccc12 (stereo not given)	–	3.82%	-5.01%
O=C(O)CNC(=O)c1ncc(-c2cccc(Cl)c2)cc1O	–	1.43%	-1.75%
CC1CN(C)CCN1C(=O)CC1(C(=O)Nc2cncc3ccccc23)CCOc2ccc(Cl)cc21 (stereo not given)	6180 nM	–	–
COc1ncc(Br)cc1Nc1cc(Cl)cc(CC(=O)Nc2cncc3ccccc23)c1	681 nM	–	–
Cc1[nH]c2ncnc(NC(=O)c3cc4ccccc4c(=O)o3)c2c1C	–	-7.32%	-4.98%
CCOC(=O)c1ccc(NC(=O)Nc2cn(C)c(=O)c3ccccc23)cc1	–	17.1%	4.9%
O=C(Nc1c[nH]nc1-c1ccccn1)c1cccc2nccn12	–	2.59%	9.01%
COc1ccc(NC(=O)c2ccc(C(=N)N(C)C)cc2)c(C(=O)Nc2ccc(Cl)cn2)c1	–	-17.3%	-3.35%
COc1cccc2[nH]c(=O)cc(C(=O)NCCOc3ccccc3OCC3CC3)c12	1920 nM	–	–
CC(C)Cn1cc(NC(=O)NCc2ccc3c(c2)OCO3)c2ccccc2c1=O	–	15.3%	11.2%
CC(C)(C)c1ccc(N(C(=O)c2cccnc2)C(C(=O)NCCc2cccc(F)c2)c2cccnc2)cc1 (stereo not given)	–	-5.55%	-6.34%
CC(C)Cn1cc(NC(=O)NCCC2=CCCCC2)c2ccccc2c1=O	–	25.7%	0.931%
Cn1cc(NC(=O)NCCCN2CCc3ccccc3C2)c2ccccc2c1=O	–	-2.25%	1.39%
CC(NC(=O)CN)(C(=O)Nc1cncc2ccccc12)c1ccc(Cl)c(Cl)c1 (stereo not given)	3380 nM	–	–
